≈ marks a conversion by molar mass, not a printed value. Like-named read-outs stand apart in the source and are kept apart here.
Legend:
[1] = tested on: M. tuberculosis H37Rv CNCTC My 331/88; assay: In vitro antimycobacterial microdilution panel method; format: cell-based; details: Mycobacterium tuberculosis, 336 h
[2] = tested on: M. avium CNCTC My 152/73; assay: as above; format: cell-based; details: Mycobacterium avium, 336 h; CNCTC My 152/73, pH 6.0, 14 days
[3] = HPLC lipophilicity determination (capacity factor k / log k); details: RP-HPLC, C18, MeOH 70%/H2O 30%, 30 °C
Procedure: The separation process was controlled by Agilent ChemStation, version B.04.02 extended by spectral module (Agilent Technologies Inc.). A solution of MeOH (HPLC grade, 70%) with H2O (HPLC-Milli-Q Grade, 30%) was used as mobile phase. The total flow of the column was 1.0 mL/min, injection 20 µL, column temperature 30 °C. 210 nm as detection wavelength and 270 nm as monitor wavelength were chosen. The KI methanol solution was used for the dead time (TD) determination. Retention times (TR) of synthesized compounds were measured in minutes. The capacity factors k were calculated using Microsoft Excel according to formula k = (TR − TD)/TD, where TR is the retention time of the solute and TD denotes the dead time obtained via an unretained analyte. Log k, calculated from the capacity factor k, is used as the lipophilicity index converted to log P scale.

[4] = tested on: photosynthetic electron transport (PET) in spinach chloroplasts; assay: Inhibition of photosynthetic electron transport (oxygen evolution rate) in spinach chloroplasts; format: biochemical, Spinacia oleracea L.; details: DCPIP photoreduction, pH 7.2
Procedure: All studied compounds were evaluated for their photosynthetic electron transport (PET) inhibition in spinach chloroplasts, which was reflected in the inhibition of oxygen evolution rate. The photosynthesis-inhibiting activity of the compounds has been expressed as IC50 values. Compounds 4, 5, 7 and 8 were not tested due to their low solubility in tested medium.
Chloroplasts were prepared from spinach (Spinacia oleracea L.) according to Masarovičová and Kráľová [31]. The inhibition of photosynthetic electron transport (PET) in spinach chloroplasts was determined spectrophotometrically (Genesys 6, Thermo Scientific, Madison, WI, USA) using an artificial electron acceptor 2,6-dichlorophenol-indophenol (DCPIP) according to Kráľová et al. and the rate of photosynthetic electron transport (PET) was monitored as a photo-reduction of DCPIP. The measurements were carried out in a phosphate buffer (0.02 mol/L, pH 7.2) containing sucrose (0.4 mol/L), MgCl2 (0.005 mol/L) and NaCl (0.015 mol/L). The chlorophyll content was 30 mg/L in these experiments and the samples were irradiated (~100 W/m^2) from a 10 cm distance with halogen lamp (250 W) using a 4 cm water filter to prevent warming of the samples (suspension temperature 22 °C). The studied compounds were dissolved in DMSO due to their limited water solubility. […] The inhibitory efficiency of the studied compounds was expressed as the IC50 values, i.e., molar concentration of the compounds causing 50% decrease in the oxygen evolution relative to the untreated control.

[5] = tested on: M. avium CNCTC My 80/72; assay: In vitro antimycobacterial microdilution panel method; format: cell-based; details: Mycobacterium avium, 336 h; CNCTC My 80/72, pH 6.0, 14 days
[6] = tested on: Trichophyton mentagrophytes 445; assay: In vitro antifungal microdilution broth method; format: cell-based; details: RPMI 1640 pH 7.0, 35 °C; for MIC: read-out: TM MIC
Procedure: The Department of Medical and Biological Sciences at the Faculty of Pharmacy in Hradec Králové, Charles University in Prague, Czech Republic, performed the antifungal susceptibility assays, which was carried out using microdilution broth method. Compounds were dissolved in DMSO and diluted in a twofold manner with RPMI 1640 medium with glutamine buffered to pH 7.0 (3-morpholinopropane-1-sulfonic acid). […] Drug-free controls were included. […] The MICs were determined after 24 and 48 h, respectively after 72 and 120 h for Trichophyton mentagrophytes (TM), of static incubation in dark at 35 °C. Tested species: […]

[7] = tested on: M. kansasii CNCTC My 235/80; assay: In vitro antimycobacterial microdilution panel method; format: cell-based; details: Mycobacterium kansasii, 144 h; CNCTC My 235/80, pH 6.0, 6 days
[8] = tested on: pigment-protein complexes in photosystem 2; assay: Fluorescence of chlorophyll a in spinach chloroplasts; format: biochemical, Spinacia oleracea L.; details: λex = 436 nm, 0-0.42 mmol/L
Text: The effects of the studied compounds on the photosynthetic apparatus of spinach chloroplasts were investigated by studying chlorophyll a (Chla) fluorescence. […] The extent of perturbation of chlorophyll a-protein complexes in the thylakoid membrane was reflected as decreased fluorescence of the pigment (see Figure 3B). Similar decrease of Chla fluorescence in plant chloroplasts was also observed previously after treatment with substituted benzanilides and salicyanilides. The fluorescence emission spectra of chlorophyll a (Chla) and aromatic amino acids in spinach chloroplasts were recorded on fluorescence spectrophotometer F-2000 (Hitachi, Tokyo, Japan) using excitation wavelength λex = 436 nm for monitoring fluorescence of Chla and λex = 275 nm for monitoring fluorescence of aromatic amino acids, excitation slit 20 nm and emission slit 10 nm. The samples were kept in the dark 2 min before measuring. The phosphate buffer used for dilution of the chloroplast suspension was the same as described above. Due to low aqueous solubility the compounds were added to a chloroplast suspension in DMSO solution. The DMSO concentration in all samples was the same as in the control (10%). The chlorophyll concentration in chloroplast suspension was 10 mg/L.

[9] = MIC with respect to molecular weight, Šula's medium pH 6.0, 14 days, read-out: MIC M. tuberculosis H37Rv (value in parentheses)
[10] = Šula's medium pH 6.0, 37 °C, 14 days, read-out: MIC M. tuberculosis H37Rv
[11] = Trichophyton mentagrophytes, 445, 72 h, pH 7, evaluated after 72 h
[12] = Trichophyton mentagrophytes, 445, 120 h, pH 7, evaluated after 120 h

Row | Compound | MIC [1, 9] [µM] | MIC [1, 10] [µg/mL] | MIC [2] [µg/mL] | log k [3] | IC50 [4] [µM] | MIC [5] [µg/mL] | MIC [6, 11] [µM] | MIC [6, 12] [µM] | MIC [7] [µg/mL] | TM MIC ([6]; evaluated after 72 h) | chlorophyll a fluorescence emission [8]
1 | O=C(NCc1ccccc1)c1cnc(Cl)cn1 [Compound 1, N-Benzyl-5-chloropyrazine-2-carboxamide] | 100 | 25 | 100 (≈ 404 µM) | 0.1862 | 1620 | 100 (≈ 404 µM) | 125 (≈ 31 µg/mL) | 125 (≈ 31 µg/mL) | 100 (≈ 404 µM) |  | 
2 | O=C(NCc1cccc(C(F)(F)F)c1)c1cnc(Cl)cn1 [Compound 2, 5-Chloro-N-(3-trifluoromethylbenzyl)pyrazine-2-carboxamide] | 79 | 25 | 100 (≈ 317 µM) | 0.4384 | 346 | 25 (≈ 79.2 µM) | 15.6 (≈ 4.93 µg/mL) | 15.6 (≈ 4.93 µg/mL) | 50 (≈ 158 µM) | 15.62/15.62 µmol/L | decreased intensity of the emission band at 686 nm
3 | O=C(NCc1ccc(Cl)cc1)c1cnc(Cl)cn1 [Compound 3, 5-Chloro-N-(4-chlorobenzyl)pyrazine-2-carboxamide] | 44 | 12.5 | 100 (≈ 354 µM) | 0.4150 | 604 | 100 (≈ 354 µM) | 125 (≈ 35.3 µg/mL) | 125 (≈ 35.3 µg/mL) | 100 (≈ 354 µM) |  | 
4 | COc1ccc(CNC(=O)c2cnc(Cl)cn2)cc1 [Compound 4, 5-Chloro-N-(4-methoxybenzyl)pyrazine-2-carboxamide] | 90 | 25 | 50 (≈ 180 µM) | 0.1655 |  | 100 (≈ 360 µM) | 250 (≈ 69.4 µg/mL) | 250 (≈ 69.4 µg/mL) | 100 (≈ 360 µM) |  | 
5 | O=C(NCc1ccccc1)c1cncc(Cl)n1 [Compound 5, N-Benzyl-6-chloropyrazine-2-carboxamide] | 50 | 12.5 | 100 (≈ 404 µM) | 0.2002 |  | 100 (≈ 404 µM) | 250 (≈ 61.9 µg/mL) | 500 (≈ 124 µg/mL) | 50 (≈ 202 µM) |  | 
6 | O=C(NCc1ccc(Cl)cc1)c1cncc(Cl)n1 [Compound 7, 6-Chloro-N-(4-chlorobenzyl)pyrazine-2-carboxamide] | 44 | 12.5 | 12.5 (≈ 44.3 µM) | 0.4335 |  | 100 (≈ 354 µM) | 125 (≈ 35.3 µg/mL) | 125 (≈ 35.3 µg/mL) | 100 (≈ 354 µM) |  | 
7 | COc1ccc(CNC(=O)c2cncc(Cl)n2)cc1 [Compound 8, 6-Chloro-N-(4-methoxybenzyl)pyrazine-2-carboxamide] | 22 | 6.25 | 50 (≈ 180 µM) | 0.1838 |  | 100 (≈ 360 µM) | 500 (≈ 139 µg/mL) | 500 (≈ 139 µg/mL) | 100 (≈ 360 µM) |  | 
8 | CC(C)(C)c1ncc(C(=O)NCc2ccccc2)nc1Cl [Compound 9, N-Benzyl-5-tert-butyl-6-chloropyrazine-2-carboxamide] | 82 | 25 | 50 (≈ 165 µM) | 1.1215 | 7.4 | 25 (≈ 82.3 µM) | 250 (≈ 75.9 µg/mL) | 500 (≈ 152 µg/mL) | 100 (≈ 329 µM) |  | 
9 | CC(C)(C)c1ncc(C(=O)NCc2cccc(C(F)(F)F)c2)nc1Cl [Compound 10, 5-tert-Butyl-6-chloro-N-(3-trifluoromethylbenzyl)pyrazine-2-carboxamide] | 16 | 6.25 | 25 (≈ 67.2 µM) | 1.3638 | 36.3 | 25 (≈ 67.2 µM) | 250 (≈ 92.9 µg/mL) | 250 (≈ 92.9 µg/mL) | 25 (≈ 67.2 µM) |  | 
10 | CC(C)(C)c1ncc(C(=O)NCc2ccc(Cl)cc2)nc1Cl [Compound 11, 5-tert-Butyl-6-chloro-N-(4-chlorobenzyl)pyrazine-2-carboxamide] | 36 | 12.5 | 50 (≈ 148 µM) | 1.3511 | 13.4 | 50 (≈ 148 µM) | 250 (≈ 84.6 µg/mL) | 500 (≈ 169 µg/mL) | 50 (≈ 148 µM) |  | 
11 | COc1ccc(CNC(=O)c2cnc(C(C)(C)C)c(Cl)n2)cc1 [Compound 12, 5-tert-Butyl-6-chloro-N-(4-methoxybenzyl)pyrazine-2-carboxamide] | 18 | 6.25 | 6.25 (≈ 18.7 µM) | 0.8071 | 122 | 12.5 (≈ 37.4 µM) | 250 (≈ 83.5 µg/mL) | 500 (≈ 167 µg/mL) | 3.12 (≈ 9.36 µM) |  | 
12 | OC(Cn1cncn1)(Cn1cncn1)c1ccc(F)cc1F [FLU, fluconazole, reference compound] |  |  |  |  |  |  | 1.95 (≈ 0.597 µg/mL) | 3.91 (≈ 1.2 µg/mL) |  |  | 
13 | NNC(=O)c1ccncc1 [INH, isoniazid, reference compound] | 11 | 1.56 | 12.5 (≈ 91.1 µM) |  |  | 12.5 to 25 (≈ 91.1 to 182 µM) |  |  | 12.5 (≈ 91.1 µM) |  | 
14 | NC(=O)c1cnccn1 [PZA, pyrazinamide, reference compound] | 50 to 101 | 6.25 to 12.5 | > 100 |  |  | > 100 |  |  | > 100 |  | 

— publication PMC6268022, “Substituted N-Benzylpyrazine-2-carboxamides: Synthesis and Biological Evaluation ^†” (Molecules, 2012)
